Experimental data reported in US20060135588A1, “Preventive and/or therapeutic drugs for inflammatory intestinal diseases” (priority 2002, published 2006).

Columns and labels:
Type in all cases: in vivo, Sprague-Dawley male rats
[1] = system: Dextran sulfate sodium (DSS)-induced colitis; test: Evaluation of DSS-induced colitis by naked eyes (wet weight of large intestine, injured mucosa area); conditions: all groups: 1, 5 and 20 mg/kg/day s.c., 8 days of 4% DSS diet
Procedure: (§1) The edaravone as synthesized above was dissolved in a small amount of 1 N sodium hydroxide solution. Thereafter, the pH thereof was adjusted to be around neutral.
(§2) 6-week-old Sprague-Dawley male rats (Clea Japan, Inc.) were used. According to the method described in the previous report (Araki Y. et al., Scand J Gastroentero, 35, 1060-1067, 2000), colitis was induced to develop in the rats as follows. That is to say, 4% (w/w) dextran sulfate sodium (DSS; molecular weight: 5,000; Wako Pure Chemical Industries, Ltd., Osaka) was added to a powder diet MF (Oriental Yeast Co., Ltd.). The rats were fed with the thus obtained mixed diet at an amount of 30 g/day/rat for 8 days. […]
8 days later, the rats were subjected to anatomy. […] Thereafter, the large intestine (the colon and the rectum) was excised, and the wet weight of the organ was measured. The degree of the injured large intestinal mucosa was evaluated by naked eyes according to the method described in the previous report (Araki Y. et al., Scand J Gastroentero, 35, 1060-1067, 2000). That is, the areas of portions, on which a change in the color tone of the mucosa (redness), an attachment of blood clots, a collapse of mucosal wall area, edema, or erosion were observed, were measured. […]

[2] = system: Dextran sulfate sodium (DSS)-induced colitis; test: Histological evaluation of DSS-induced colitis (damage score); conditions: 8 days DSS; for damage score vs control group: FIG. 3(A)
Procedure: as §1
(§3) 6-week-old Sprague-Dawley male rats (Clea Japan, Inc.) were used. According to the method described in the previous report (Araki Y. et al., Scand J Gastroentero, 35, 1060-1067, 2000), colitis was induced to develop in the rats as follows. That is to say, 4% (w/w) dextran sulfate sodium (DSS; molecular weight: 5,000; Wako Pure Chemical Industries, Ltd., Osaka) was added to a powder diet MF (Oriental Yeast Co., Ltd.). The rats were fed with the thus obtained mixed diet at an amount of 30 g/day/rat for 8 days. With regard to edaravone administration groups, from immediately after initiation of the administration of DSS, edaravone was subcutaneously injected into the back of each rat, at a dose of 1 mg/kg/day, 5 mg/kg/day, or 20 mg/kg/day, which was dividedly administered in the morning and evening. With regard to a control group, a normal saline solution was subcutaneously injected into the back of each rat in the same above manner.
The mucosa located at 5 mm from the anus side was fixed with a Carnoy's fluid for 3 hours, and was then embedded in paraffin. Thereafter, a tissue fragment with a thickness of 5 μm was prepared, followed by hematoxylin-eosin staining. Scoring of colitis was conducted in accordance with the method described in the previous report (Araki Y. et al., Scand J Gastroentero, 35, 1060-1067, 2000). Namely, the degree and size of each of the following 3 items: (i) the absence of the mucosal epithelium, (ii) deformation of crypts, and (iii) the level of infiltration of inflammatory cells, are expressed in the following point system: 0: none; 1: slight and localized; 2: moderate and localized; 3: moderate and broad; and 4: severe and broad. The total points regarding the above 3 items were summed up, and the obtained value was defined as the histological colitis score (damage score) of a rat.
The results are shown as mean±SEM. The comparison between groups was carried out by Fisher's PLSD Test. […]

[3] = system: myeloperoxidase activity in the large intestinal mucosa; test: Myeloperoxidase activity in large intestinal mucosa of rats with DSS-induced colitis; conditions: 8 days DSS, FIG. 3(B)
Procedure: as §1, §2
Myeloperoxidase activity used as an indicator of inflammation in the large intestinal mucosa was measured by the method described in the previous report (Araki Y. et al., Clin Exp Immunol, 119, 264-269, 2000). […] The activity of the obtained homogenate was observed as a change in the absorbance at 460 nm obtained as a result of the reaction of H2O2 with o-dianisidin.
Hyperoxidation of lipids is an important mechanism regarding tissue injury. […] Accordingly, the concentrations of MDA and 4-HNE in the large intestinal mucosa were measured, and the obtained values were used as indicators of the state of reactive oxygen species (ROS) in tissues (Matsumura N. et al., Pancreas, 22, 53-7, 2001). […]

[4] = system: MDA and 4-HNE in the large intestinal mucosa; test: Concentrations of MDA and 4-HNE in large intestinal mucosa of rats with DSS-induced colitis; conditions: all groups: 1, 5 and 20 mg/kg/day s.c., 8 days DSS; no significant differences among the administration groups; FIG. 4(A)
Procedure: as §1, §2
Hyperoxidation of lipids is an important mechanism regarding tissue injury. […] Accordingly, the concentrations of MDA and 4-HNE in the large intestinal mucosa were measured, and the obtained values were used as indicators of the state of reactive oxygen species (ROS) in tissues (Matsumura N. et al., Pancreas, 22, 53-7, 2001). That is, the large intestinal mucosa was homogenized with 9 times its volume of 50 mmol/l Tris-buffer (pH 8.0) containing 0.5% Triton X-100, and the concentrations were measured using an assay kit, Lipid peroxidation assay kit (Calbiochem, La Jolla, Calif., U.S.A.). […]

[5] = system: interleukin-6 in the plasma; test: Concentration of interleukin-6 in plasma of rats with DSS-induced colitis (ELISA); conditions: 8 days DSS, FIG. 4(B)
Procedure: as §1
as §3, with “With regard to a control group, a normal saline solution was subcutaneously injected into the back of each rat in the same above manner.” left out
The concentration of interleukin-6 in the plasma was measured as an indicator of a systemic inflammatory reaction. That is to say, the blood was centrifuged at 10,000 rpm, and then the concentration of interleukin-6 in the plasma was measured by the ELISA method (Rat IL-6 ELISA KIT, BioSource Europe, S.A., Belgium). […]

[6] = all groups: 1, 5 and 20 mg/kg/day s.c.

CC1=NN(c2ccccc2)C(=O)C1 [edaravone, 3-methyl-1-phenyl-2-pyrazolin-5-one]
injured mucosa area vs control group ([1]; FIG. 1(B)): significantly smaller
wet weight of the large intestine vs control group ([1]; divided morning and evening, FIG. 1(A)): significantly lower
damage score vs control group ([2]; 20 mg/kg/day s.c.): significantly lower
edema formed in the submucosal layer and infiltration of inflammatory cells (large intestine tissue image) ([2]; 1, 5 and 20 mg/kg/day s.c., hematoxylin-eosin, FIG. 2): suppressed
damage score vs control group [2, 6]: lower
myeloperoxidase activity in the large intestinal mucosa vs control group ([3]; 20 mg/kg/day s.c.): significantly lower
myeloperoxidase activity in the large intestinal mucosa vs control group [3, 6]: lower
concentrations of MDA and 4-HNE in the large intestinal mucosa vs control group [4]: lower
concentration of IL-6 in the plasma vs control group ([5]; 20 mg/kg/day s.c.): significantly lower
concentration of IL-6 in the plasma vs control group [5, 6]: lower
